# In ChEMBL document CHEMBL1201862, “PubChem BioAssay data set” (2004):
# Calls of active or inactive are those of the source.
# Key:
# [1] = molecular target: T1, Coagulation factor XII (Homo sapiens, UniProt P00748); assay: Factor XIIa Dose Response Confirmation from Single Well HTS. [Related pubchem assays (depositor defined):AID701]; format: functional
# T1 sequence (P00748 whole entry): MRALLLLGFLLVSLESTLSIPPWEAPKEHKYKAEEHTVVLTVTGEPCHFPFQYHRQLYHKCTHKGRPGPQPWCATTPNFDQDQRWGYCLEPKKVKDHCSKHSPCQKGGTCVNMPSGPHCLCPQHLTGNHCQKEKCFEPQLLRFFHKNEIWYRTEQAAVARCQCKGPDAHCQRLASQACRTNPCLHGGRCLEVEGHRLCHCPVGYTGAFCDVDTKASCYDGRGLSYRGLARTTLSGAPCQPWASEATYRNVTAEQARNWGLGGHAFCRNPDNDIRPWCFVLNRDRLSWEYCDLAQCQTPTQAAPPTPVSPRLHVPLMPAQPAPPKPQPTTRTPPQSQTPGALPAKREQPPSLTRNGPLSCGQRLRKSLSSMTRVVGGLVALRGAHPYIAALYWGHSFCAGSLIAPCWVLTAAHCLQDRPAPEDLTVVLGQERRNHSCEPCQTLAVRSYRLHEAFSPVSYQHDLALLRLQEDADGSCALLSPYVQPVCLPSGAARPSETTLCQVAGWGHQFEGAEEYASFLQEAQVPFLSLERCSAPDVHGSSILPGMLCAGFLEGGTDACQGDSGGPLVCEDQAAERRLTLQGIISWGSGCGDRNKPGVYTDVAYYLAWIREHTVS
# [2] = molecular target: Mu-type opioid receptor (Homo sapiens, UniProt P35372); format: functional, cell-based;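 note: U2OS cells with beta-arrestin recruitment to OPRM1 by beta-gal complementation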
# Sequence of Mu-type opioid receptor (P35372 whole entry): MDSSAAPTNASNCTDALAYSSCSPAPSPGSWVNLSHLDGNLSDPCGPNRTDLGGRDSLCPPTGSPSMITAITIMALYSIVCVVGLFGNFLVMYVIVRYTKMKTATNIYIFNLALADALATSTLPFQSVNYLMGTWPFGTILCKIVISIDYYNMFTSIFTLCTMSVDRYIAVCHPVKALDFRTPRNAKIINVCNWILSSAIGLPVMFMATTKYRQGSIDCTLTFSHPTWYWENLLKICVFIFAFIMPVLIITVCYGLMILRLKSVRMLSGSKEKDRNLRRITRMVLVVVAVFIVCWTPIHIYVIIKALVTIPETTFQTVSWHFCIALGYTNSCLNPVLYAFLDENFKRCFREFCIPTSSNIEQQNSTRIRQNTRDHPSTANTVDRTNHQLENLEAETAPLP
# [3] = molecular target: 5-hydroxytryptamine receptor 2A (Mus musculus, UniProt P35363); format: functional, cell-based;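 note: CHO-K1 cells with tagged receptor and beta-arrestin; agonist potency measured as compound-induced activation of the receptor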
# Sequence of 5-hydroxytryptamine receptor 2A (P35363 whole entry): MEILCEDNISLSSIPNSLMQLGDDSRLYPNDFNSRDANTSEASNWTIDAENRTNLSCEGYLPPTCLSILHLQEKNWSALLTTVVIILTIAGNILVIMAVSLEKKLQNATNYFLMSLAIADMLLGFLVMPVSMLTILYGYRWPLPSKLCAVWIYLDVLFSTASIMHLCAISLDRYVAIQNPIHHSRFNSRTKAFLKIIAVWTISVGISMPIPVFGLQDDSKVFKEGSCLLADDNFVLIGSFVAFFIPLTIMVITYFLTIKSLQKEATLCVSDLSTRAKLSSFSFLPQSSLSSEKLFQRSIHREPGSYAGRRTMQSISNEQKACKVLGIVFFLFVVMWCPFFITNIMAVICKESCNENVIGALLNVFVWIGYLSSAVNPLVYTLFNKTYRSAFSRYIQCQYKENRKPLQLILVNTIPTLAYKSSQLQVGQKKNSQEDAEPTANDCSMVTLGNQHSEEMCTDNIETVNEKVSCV
# [4] = viability loss in HEK293T cells – cell-based, cherry-picks, cytotoxicity control for HIV Vif inhibitor project, dose response (AID 652208); format: functional
# [5] = molecular target: T2, Sentrin-specific protease 1 (Homo sapiens, UniProt Q9P0U3); assay: SENP1 catalytic domain blockers, concentration series – biochemical, kinetic FRET, dose response (AID 651697); format: functional; conditions: read-out: IC50_Mean
# T2 sequence (Q9P0U3 whole entry): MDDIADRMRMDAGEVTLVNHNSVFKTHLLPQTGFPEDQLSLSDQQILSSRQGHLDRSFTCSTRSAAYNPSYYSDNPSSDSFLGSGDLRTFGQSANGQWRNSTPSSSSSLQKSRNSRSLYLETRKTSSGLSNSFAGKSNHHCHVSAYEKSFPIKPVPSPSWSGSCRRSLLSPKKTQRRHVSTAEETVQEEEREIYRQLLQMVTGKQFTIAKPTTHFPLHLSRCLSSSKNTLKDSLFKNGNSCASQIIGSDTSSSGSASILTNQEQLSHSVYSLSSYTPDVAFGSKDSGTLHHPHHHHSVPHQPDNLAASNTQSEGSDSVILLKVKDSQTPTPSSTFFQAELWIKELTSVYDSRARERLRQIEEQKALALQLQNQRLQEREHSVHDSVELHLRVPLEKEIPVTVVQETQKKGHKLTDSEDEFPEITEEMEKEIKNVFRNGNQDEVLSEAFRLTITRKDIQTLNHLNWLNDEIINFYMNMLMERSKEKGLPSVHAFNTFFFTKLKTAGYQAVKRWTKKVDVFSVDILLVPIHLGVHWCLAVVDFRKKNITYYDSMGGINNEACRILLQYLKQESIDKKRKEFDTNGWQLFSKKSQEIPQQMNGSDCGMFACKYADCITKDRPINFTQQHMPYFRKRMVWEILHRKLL
# [6] = molecular target: T2, Sentrin-specific protease 1; assay: Dose response confirmation of small molecule inhibitors of the catalytic domain of the SUMO protease, SENP1 in a FRET assay.; format: functional; conditions: read-out: IC50_Mean
# [7] = molecular target: Hepatocyte nuclear factor 4-alpha (Homo sapiens, UniProt P41235); format: functional, cell-based;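 note: biochemical luminescence-based dose-response counterscreen measuring inhibition of HNF4 dimerization, run alongside a screen for blockers of ABHD5–perilipin-5 interaction; split luciferase complementation of HNF4 fusion proteins in cell lysate measuring dimerization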
# Sequence of Hepatocyte nuclear factor 4-alpha (P41235 whole entry, the tested form may be a part): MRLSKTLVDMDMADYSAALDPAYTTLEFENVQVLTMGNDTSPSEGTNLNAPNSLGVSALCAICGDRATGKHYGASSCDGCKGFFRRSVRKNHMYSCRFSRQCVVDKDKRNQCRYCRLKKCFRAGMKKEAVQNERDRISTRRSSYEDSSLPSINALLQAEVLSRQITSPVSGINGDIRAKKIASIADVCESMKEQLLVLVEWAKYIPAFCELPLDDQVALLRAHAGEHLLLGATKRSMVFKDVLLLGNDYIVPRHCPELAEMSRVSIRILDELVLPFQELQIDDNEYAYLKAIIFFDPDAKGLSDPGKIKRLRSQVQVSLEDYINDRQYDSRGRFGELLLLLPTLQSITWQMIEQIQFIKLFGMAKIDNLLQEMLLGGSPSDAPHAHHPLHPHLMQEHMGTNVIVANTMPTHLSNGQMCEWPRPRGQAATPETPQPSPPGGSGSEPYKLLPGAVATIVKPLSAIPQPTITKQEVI
# [8] = cytotoxicity toward MDA-MB-231 breast cancer cells – cell-based, CellTiter-Glo luminescence, cherry-pick, cytotoxicity control for RAD54 inhibitor project, dose response (AID 651692); format: functional
# [9] = viability loss in HeLa cells – cytotoxicity control for MgcRacGAP inhibitor project, dose response (AID 624300); format: functional
# [10] = molecular target: T3, DNA repair and recombination protein RAD54-like (Homo sapiens, UniProt Q92698); assay: RAD54 Holliday junction migration blockers – biochemical, fluorescence, cherry-picked samples, dose series, confirmation (AID 651657); format: functional
# T3 sequence (Q92698 whole entry): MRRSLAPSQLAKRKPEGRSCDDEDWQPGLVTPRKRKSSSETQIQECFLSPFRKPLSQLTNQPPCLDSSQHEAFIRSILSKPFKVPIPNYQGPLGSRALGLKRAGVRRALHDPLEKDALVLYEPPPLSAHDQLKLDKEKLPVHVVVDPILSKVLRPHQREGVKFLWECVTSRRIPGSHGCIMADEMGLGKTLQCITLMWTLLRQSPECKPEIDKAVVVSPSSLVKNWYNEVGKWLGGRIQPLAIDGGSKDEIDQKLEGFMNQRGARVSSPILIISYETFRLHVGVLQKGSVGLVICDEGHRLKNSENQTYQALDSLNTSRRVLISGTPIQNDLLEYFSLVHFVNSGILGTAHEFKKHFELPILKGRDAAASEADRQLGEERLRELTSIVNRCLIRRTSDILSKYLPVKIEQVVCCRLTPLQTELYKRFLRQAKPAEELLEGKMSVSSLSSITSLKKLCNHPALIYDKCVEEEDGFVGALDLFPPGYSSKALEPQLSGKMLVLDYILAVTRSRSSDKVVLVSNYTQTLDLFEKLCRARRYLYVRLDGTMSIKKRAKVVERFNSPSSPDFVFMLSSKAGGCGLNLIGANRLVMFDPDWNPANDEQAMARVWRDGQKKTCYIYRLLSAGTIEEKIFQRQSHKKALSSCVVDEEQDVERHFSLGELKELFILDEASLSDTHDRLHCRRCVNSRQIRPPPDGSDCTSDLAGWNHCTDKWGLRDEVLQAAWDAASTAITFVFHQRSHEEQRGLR
# [11] = molecular target: T4, Rac GTPase-activating protein 1 (Homo sapiens, UniProt Q9H0H5); assay: blockers of MgcRacGAP-driven Rac1 GTP hydrolysis – biochemical, ADP Hunter fluorescence, primary and confirmatory, confirmation (AID 624330); format: functional
# T4 sequence (Q9H0H5 whole entry): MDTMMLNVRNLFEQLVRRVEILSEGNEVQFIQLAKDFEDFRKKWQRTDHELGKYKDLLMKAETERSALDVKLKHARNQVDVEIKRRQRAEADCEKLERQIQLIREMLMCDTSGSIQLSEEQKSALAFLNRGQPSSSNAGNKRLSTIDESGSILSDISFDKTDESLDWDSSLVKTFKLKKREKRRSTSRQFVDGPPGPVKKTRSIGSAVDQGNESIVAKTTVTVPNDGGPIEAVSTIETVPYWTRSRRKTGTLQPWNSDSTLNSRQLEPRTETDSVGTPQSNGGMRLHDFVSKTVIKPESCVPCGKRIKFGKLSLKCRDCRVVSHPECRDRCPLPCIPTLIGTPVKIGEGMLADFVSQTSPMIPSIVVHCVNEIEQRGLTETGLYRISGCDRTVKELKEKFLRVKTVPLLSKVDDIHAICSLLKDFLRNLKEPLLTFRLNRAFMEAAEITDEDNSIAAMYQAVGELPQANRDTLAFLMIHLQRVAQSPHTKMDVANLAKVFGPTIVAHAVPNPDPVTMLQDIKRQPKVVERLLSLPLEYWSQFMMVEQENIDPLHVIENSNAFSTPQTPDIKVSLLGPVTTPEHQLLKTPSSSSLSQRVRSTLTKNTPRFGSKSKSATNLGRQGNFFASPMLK
# [12] = molecular target: T5, DNA repair protein RAD52 homolog (Homo sapiens, UniProt P43351); format: functional, biochemical
# T5 sequence (P43351 whole entry): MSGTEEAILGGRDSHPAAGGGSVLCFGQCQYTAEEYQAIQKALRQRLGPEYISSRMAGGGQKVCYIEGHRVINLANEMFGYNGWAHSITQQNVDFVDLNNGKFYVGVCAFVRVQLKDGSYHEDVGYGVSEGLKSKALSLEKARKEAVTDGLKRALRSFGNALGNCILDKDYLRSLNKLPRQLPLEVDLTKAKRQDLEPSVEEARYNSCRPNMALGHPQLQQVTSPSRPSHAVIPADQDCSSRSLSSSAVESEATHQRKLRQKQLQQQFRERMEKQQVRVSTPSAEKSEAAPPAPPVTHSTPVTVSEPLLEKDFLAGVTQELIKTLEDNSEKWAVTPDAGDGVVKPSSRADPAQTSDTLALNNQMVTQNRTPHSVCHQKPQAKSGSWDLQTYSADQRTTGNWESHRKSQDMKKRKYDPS
# [13] = molecular target: T6, Histone-lysine N-methyltransferase NSD2 (Homo sapiens, UniProt O96028); format: biochemical
# T6 sequence (O96028 whole entry): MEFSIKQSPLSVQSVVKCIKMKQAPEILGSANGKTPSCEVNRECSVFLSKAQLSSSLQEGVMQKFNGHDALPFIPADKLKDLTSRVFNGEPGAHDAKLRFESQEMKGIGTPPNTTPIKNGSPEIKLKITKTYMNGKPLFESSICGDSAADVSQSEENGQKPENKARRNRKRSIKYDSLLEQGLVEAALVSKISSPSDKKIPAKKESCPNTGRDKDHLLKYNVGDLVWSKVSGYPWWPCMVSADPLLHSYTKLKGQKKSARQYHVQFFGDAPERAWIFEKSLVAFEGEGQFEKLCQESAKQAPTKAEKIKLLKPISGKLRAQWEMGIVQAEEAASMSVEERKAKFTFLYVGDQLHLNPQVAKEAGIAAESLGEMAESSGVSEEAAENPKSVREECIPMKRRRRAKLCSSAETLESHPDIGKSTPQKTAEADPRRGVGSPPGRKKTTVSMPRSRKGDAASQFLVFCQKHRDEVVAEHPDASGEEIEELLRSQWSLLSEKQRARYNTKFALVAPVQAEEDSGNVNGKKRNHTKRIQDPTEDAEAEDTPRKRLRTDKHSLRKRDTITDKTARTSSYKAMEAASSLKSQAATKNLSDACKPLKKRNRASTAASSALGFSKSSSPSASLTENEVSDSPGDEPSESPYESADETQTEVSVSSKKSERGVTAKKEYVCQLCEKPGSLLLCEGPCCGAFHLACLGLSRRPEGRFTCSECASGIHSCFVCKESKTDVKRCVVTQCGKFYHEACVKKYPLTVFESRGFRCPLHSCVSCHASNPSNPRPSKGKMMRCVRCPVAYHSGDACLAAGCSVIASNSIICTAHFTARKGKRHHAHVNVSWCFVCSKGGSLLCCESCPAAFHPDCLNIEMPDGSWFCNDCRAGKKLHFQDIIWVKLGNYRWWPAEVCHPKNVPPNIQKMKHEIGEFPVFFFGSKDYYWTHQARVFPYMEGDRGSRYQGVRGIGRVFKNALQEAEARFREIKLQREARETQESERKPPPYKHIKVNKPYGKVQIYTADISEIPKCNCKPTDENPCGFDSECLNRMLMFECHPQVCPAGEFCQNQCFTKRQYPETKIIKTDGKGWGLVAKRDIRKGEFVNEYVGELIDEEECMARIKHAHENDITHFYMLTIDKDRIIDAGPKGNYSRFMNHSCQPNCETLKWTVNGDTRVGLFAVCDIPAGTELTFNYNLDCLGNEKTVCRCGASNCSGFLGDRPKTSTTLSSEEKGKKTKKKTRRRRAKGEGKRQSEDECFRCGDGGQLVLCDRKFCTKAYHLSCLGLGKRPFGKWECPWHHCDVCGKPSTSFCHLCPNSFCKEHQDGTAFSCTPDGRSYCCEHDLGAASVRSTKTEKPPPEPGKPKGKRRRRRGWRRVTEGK
# [14] = molecular target: Genome polyprotein (dengue virus type 2, UniProt P29990); assay: flavivirus cap methylation enzyme inhibition – biochemical, confirmation dose response, primary screen (AID 588689); format: functional
# Sequence of Genome polyprotein (P29990 2492-3391 limits assumed): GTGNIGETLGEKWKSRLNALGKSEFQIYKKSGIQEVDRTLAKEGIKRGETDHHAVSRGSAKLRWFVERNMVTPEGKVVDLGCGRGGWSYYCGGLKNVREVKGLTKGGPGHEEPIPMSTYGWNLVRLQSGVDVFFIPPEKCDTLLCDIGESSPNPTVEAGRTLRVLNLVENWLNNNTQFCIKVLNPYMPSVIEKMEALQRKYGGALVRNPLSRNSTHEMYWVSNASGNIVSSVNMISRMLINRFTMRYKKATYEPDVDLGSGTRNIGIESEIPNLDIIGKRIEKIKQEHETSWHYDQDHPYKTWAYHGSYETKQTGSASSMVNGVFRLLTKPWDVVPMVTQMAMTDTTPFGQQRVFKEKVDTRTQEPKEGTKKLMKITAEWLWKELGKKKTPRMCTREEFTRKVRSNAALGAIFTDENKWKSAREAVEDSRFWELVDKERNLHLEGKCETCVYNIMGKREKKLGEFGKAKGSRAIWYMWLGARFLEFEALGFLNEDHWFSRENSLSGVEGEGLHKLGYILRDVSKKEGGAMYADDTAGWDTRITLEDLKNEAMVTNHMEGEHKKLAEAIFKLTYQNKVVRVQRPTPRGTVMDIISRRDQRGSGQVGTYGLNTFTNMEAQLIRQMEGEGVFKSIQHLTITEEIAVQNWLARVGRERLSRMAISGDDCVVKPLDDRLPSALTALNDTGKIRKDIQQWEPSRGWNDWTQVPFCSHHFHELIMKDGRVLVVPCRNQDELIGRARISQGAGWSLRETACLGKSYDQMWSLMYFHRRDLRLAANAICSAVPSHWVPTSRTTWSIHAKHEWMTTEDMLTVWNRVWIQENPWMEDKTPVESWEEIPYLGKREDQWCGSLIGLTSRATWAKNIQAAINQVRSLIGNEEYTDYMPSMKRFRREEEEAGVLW
# [15] = molecular target: T7, Probable nicotinate-nucleotide adenylyltransferase (Staphylococcus aureus (strain N315), UniProt P65502); format: functional, Staphylococcus aureus subsp. aureus N315;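 for IC50 Mean: confirmatory dose-response retesting of NadD inhibitor hits first found in an ultra-high-throughput screen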
# T7 sequence (P65502 whole entry): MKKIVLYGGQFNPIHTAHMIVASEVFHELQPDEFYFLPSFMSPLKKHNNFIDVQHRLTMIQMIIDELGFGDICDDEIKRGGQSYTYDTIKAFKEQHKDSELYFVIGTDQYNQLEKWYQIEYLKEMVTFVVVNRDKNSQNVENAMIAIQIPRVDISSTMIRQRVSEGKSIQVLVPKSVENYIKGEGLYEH
# [16] = molecular target: T7, Probable nicotinate-nucleotide adenylyltransferase; format: functional, Staphylococcus aureus subsp. aureus N315; conditions: read-out: IC50_Mean
# [17] = molecular target: Beta-lactamase (Salmonella choleraesuis (strain SC-B67), UniProt Q5J463); assay: Epi-absorbance-based counterscreen for selective VIM-2 inhibitors: dose response biochemical high throughput screening assay to identify inhibitors of TEM-1 serine-beta-lactamase.
# Sequence of Beta-lactamase (Salmonella choleraesuis (strain SC-B67), UniProt Q5J463) (Q5J463 whole entry): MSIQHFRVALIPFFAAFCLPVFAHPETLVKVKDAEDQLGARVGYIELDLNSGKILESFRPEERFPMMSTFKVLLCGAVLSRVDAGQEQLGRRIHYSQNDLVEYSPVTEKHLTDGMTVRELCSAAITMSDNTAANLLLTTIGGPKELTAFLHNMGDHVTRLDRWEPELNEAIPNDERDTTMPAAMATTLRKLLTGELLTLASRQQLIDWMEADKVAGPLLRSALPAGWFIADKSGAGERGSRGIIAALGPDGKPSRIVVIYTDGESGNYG
# [18] = molecular target: T8, Beta-lactamase (Pseudomonas aeruginosa, UniProt Q79MP6); assay: inhibition of IMP-1 beta-lactamase activity – biochemical, epi-absorbance, selectivity assay for VIM-2 inhibitor project, dose response (AID 1920)
# T8 sequence (Q79MP6 whole entry): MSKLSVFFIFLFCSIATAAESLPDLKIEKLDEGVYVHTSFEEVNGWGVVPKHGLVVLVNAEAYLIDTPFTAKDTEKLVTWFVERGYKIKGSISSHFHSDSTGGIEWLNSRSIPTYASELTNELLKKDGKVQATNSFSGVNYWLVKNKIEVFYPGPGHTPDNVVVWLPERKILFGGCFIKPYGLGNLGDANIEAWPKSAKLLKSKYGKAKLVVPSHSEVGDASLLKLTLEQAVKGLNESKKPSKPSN
# [19] = molecular target: T9, Beta Lactamase (Pseudomonas aeruginosa, UniProt Q932Y6); assay: concentration-dependent VIM-2 enzyme inhibition – biochemical, epi-absorbance readout, selective inhibitors, dose response (AID 1919)
# T9 sequence (Q932Y6 whole entry): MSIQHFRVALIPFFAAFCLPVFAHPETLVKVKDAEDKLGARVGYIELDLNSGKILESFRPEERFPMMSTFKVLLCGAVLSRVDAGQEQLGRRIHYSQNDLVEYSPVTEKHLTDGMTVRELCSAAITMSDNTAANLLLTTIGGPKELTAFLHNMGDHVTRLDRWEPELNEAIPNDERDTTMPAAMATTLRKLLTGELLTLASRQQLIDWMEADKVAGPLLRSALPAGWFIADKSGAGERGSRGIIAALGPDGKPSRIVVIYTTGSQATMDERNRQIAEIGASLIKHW
# [20] = molecular target: T8, Beta-lactamase; assay: […] counterscreen for selective VIM-2 inhibitors: dose response biochemical high throughput screening assay to identify inhibitors of IMP-1 metallo-beta-lactamase.
# [21] = molecular target: T9, Beta Lactamase; assay: VIM-2 CCF2 hydrolysis inhibition, assay artifact filter – biochemical, FRET readout, CCF2 substrate, artefact control for selective VIM-2 inhibitor project, dose response (AID 1926)
compound,measurement,setting,value
CCOC(=O)N1CCN(C/C(C)=C/c2ccccc2)CC1,IC50,[1],> 50 µM (inactive)
same,EC50,[2],92.5 µM (inactive)
same,EC50,[3],11.5 µM (inactive)
CCOC(=O)C1CCN(S(=O)(=O)c2cccc(-c3cn4cc(C)ccc4n3)c2)CC1,AC50,[4],> 52 µM (inactive)
COc1ccc(N2C(=O)C3C(C2=O)C(C(=O)c2ccc(Cl)cc2)N2CCCC32)cc1 (stereo unspecified),IC50,[5],5.56 µM (active)
same,IC50,[6],4.36 µM (active)
COc1cc(C)c2sc3ccccc3c(=O)c2c1NCCN(C)C,IC50,[7],36.1 µM (inactive)
same,AC50,[8],33.6 µM (active)
same,CC50,[9],53.3 µM (active)
same,AC50,[10],2.7 µM (active)
same,IC50,[11],71.4 µM (active)
same,AC50,[12],1.07 µM (active)
same,AC50,[13],5.29 µM (active)
Cc1ccc(NS(=O)(=O)c2ccc(N/N=C/c3ccccc3OCC(=O)O)c([N+](=O)[O-])c2)c(C)c1,IC50,[14],43.9 µM (active)
same,IC50,[15],6.32 µM (active)
same,IC50,[16],23.3 µM (active)
COc1ccc(OC)c(/C=N/NC(=O)CC2C(=O)NN=C2C)c1 (stereo unspecified),IC50,[17],> 59.6 µM (inactive)
same,IC50,[18],> 59.6 µM (inactive)
same,IC50,[19],6.1 µM (active)
same,IC50,[20],> 59.6 µM (inactive)
same,IC50,[21],2.13 µM (active)
